Results on one compound are retold here after patent publication US9237744B2, “Preservative solution for cells, tissues and organs containing rare sugar and preservative method thereof” (NATIONAL UNIVERSITY CORPORATION KAGAWA UNIVERSITY, priority 2004, dated 2016).

Test [1] relates to human sperms. The test can be described thus: Movement rate of frozen and thawed sperms, visual observation with Makler Counting Chamber. The conditions noted are these: KS-II solution with D-allose alone versus glucose only, liquid nitrogen 1 month, P=0.0469 (FIG. 16). The test is classed as cell-based. How it is done: (§1) Semens of ten healthy men who were 24 to 44 years old (mean: 29.9) with normal semens were used.
(§2) The semen was manually collected after abstinence for 3 to 5 days, liquefied at room temperature, and then washed and concentrated by a 80% Percoll liquid agitation density gradient method. The resulting sperm turbid solution (0.2 ml) and the freeze-preservative solution were mixed in equal amounts, and the mixture was charged into a freezing tube (serum tube, Sumitomo Bakelite), frozen by a liquid nitrogen vapor freezing method, and then preserved in a liquid nitrogen tank. The freeze-preservative solution (refer to FIG. 14) was used such that the mixing amounts of D-allose and D-glucose were changed (A group=1:0, B group=3:1, C group=1:1, D group=1:3, E group=0:1) without changing the number of moles of the sugar in a KS-II sperm preservative solution. One month later, the frozen sperms were thawed in warm water (30° C.) with shaking. Further, for removal of the freeze-preservative solution and reconcentration, the density gradient centrifugation method was conducted, and the resulting sperm floating solution was examined.
(§3) As the examination method, the sperm movement rate was measured by a visual observation method with Makler Counting Chamber and C-IMAGING SYSTEMS, and the survival rate was measured by 0.5% Eosin Y dying. […]

The conditions of test [2]: Murata et al., J. Bioengineering and Bioscience, 2003; cited from earlier work.
The subject of test [3] is MPO. The test is described as follows: Renal ischemic reperfusion model, MPO as index of accumulation of leukocytes. It counts as in vivo, rat. The conditions noted are these: 400 mg/kg intravenously 30 minutes before renal ischemia; peak after 6 hours of reperfusion (FIG. 13). How it is done: Object: male rats with a body weight of 200˜250 g Experimental method: After anesthetization of a rat with nenbutal, a renal ischemic model is prepared. Renal ischemic model: After extraction of the right kidney, the left kidney blood vessel is clamped for 45 minutes. 400 mg/kg of the solution is intravenously administered to the D-allose group 30 minutes before the renal ischemia. A raw feed is administered to the control group. Estimation: Change with time of a CINC-1 protein amount and MPO as an index of accumulation of leukocytes after ischemic reperfusion

Test [4] has as its system human sperms. The test can be described thus: Survival rate of frozen and thawed sperms, 0.5% Eosin Y dying. The test is classed as cell-based. The following applies: freeze-preservative solution using D-allose, liquid nitrogen 1 month (FIG. 17). How it is done:
as §1, §2, §3

Test [5] relates to Hela, OVCAR-3, HaCaT, HFB and NIH3T3 cells. The test can be described thus: Survival rate of cells after freeze-preservation at high sugar concentration, trypan blue (Example 2). It counts as cell-based, human, mouse. The procedure: 1. Cells used: Hela (human cervical cancer), OVCAR-3 (human ovarian cancer), HaCaT (human skin keratinocyte), HFB (human fibroblast) and NIH3T3 (mouse fibroblast). Saccharides D-allose and the like were added to culture medium, Cell Banker (commercially available preservative solution) and DMSO at concentrations of 0.2, 0.4, 0.6, 0.8 and 1M. Monosaccharides such as D-glucose, D-fructose, D-mannose and D-galactose which are present in nature in large quantities and D-allose, D-altrose, D-psicose, L-psicose, D-sorbose, L-sorbose, D-tagatose, L-tagatose and L-fructose as rare sugars were used. Further, trehalose as disaccharide was used. The cells frozen with D-allose were freeze-preserved at −80° C. and in liquid nitrogen for 24 hours, 1 week and 4 weeks. 1) Survival rate of cells: The cells were thawed, and the survival rate was estimated by a trypan blue dying method.

In test [6] the test system is HFB (human fibroblast). The test can be described thus: Cell growth after thawing of freeze-preserved cells, MTT assay (Example 1). It counts as cell-based. The conditions noted are these: culture medium plus sugar, in comparison with other cases (FIG. 2). How it is done: (§4) 1. Cells used: Hela (human cervical cancer), OVCAR-3 (human ovarian cancer), HuH-7 (human liver cancer), HaCaT (human skin keratinocyte), HFB (human fibroblast) and NIH3T3 (mouse fibroblast). Saccharides D-allose and the like were added to culture medium, Cell Banker (commercially available preservative solution) and DMSO at concentrations of 25 mM and 50 mM. Monosaccharides such as D-glucose, D-fructose, D-mannose and D-galactose which are present in nature in large quantities and D-allose, D-psicose, D-altrose, allitol, D-talitol and L-sorbose as rare sugars were used. Further, trehalose as disaccharide was used. The cells were preserved for 24 hours by being frozen at −80° C. 2) Cell growth: One day later, the cells were thawed, and 0.25˜2×10^4 cells/well were spread on 96-well plate with 0.1 mL medium. After a prescribed period of time, the cell growth was measured by MTT assay.
A general note: Tetrazolium dyes change colour on reduction, which living cells bring about.

Test [7] has as its system NIH3T3 (mouse fibroblast). The description is as above. The test is classed as cell-based. The following applies: same experiment as with HFB. How it is done:
as §4

For test [8], the system named is Hela, OVCAR-3, HaCaT, HFB and NIH3T3 cells. The test can be described thus: Cell growth after thawing of cells freeze-preserved at optimum concentrations, MTT assay (Example 2). The test is classed as cell-based, human, mouse. How it is done: 1. Cells used: Hela (human cervical cancer), OVCAR-3 (human ovarian cancer), HaCaT (human skin keratinocyte), HFB (human fibroblast) and NIH3T3 (mouse fibroblast). Saccharides D-allose and the like were added to culture medium, Cell Banker (commercially available preservative solution) and DMSO at concentrations of 0.2, 0.4, 0.6, 0.8 and 1M. Monosaccharides such as D-glucose, D-fructose, D-mannose and D-galactose which are present in nature in large quantities and D-allose, D-altrose, D-psicose, L-psicose, D-sorbose, L-sorbose, D-tagatose, L-tagatose and L-fructose as rare sugars were used. Further, trehalose as disaccharide was used. The cells frozen with D-allose were freeze-preserved at −80° C. and in liquid nitrogen for 24 hours, 1 week and 4 weeks. 2) Cell growth: The cells were freeze-preserved with D-allose and trehalose at optimum concentrations for 24 hours, thawed, and spread on a 96-well plate such that the concentration was 0.5-1×10^4 cells/well/0.1 ml. After a prescribed period of time, the cell growth was measured by MTT assay.

In the case of `O=C[C@H](O)[C@H](O)[C@H](O)[C@H](O)CO` [D-allose], the “movement rate of thawed sperms” value in test [1] was “high in movement rate of thawed sperms in the eight of nine cases”. In addition, the antioxidation activity entry in test [2] is reported as “proved to have the antioxidation activity”. For the same compound, the “MPO as the index of accumulation of leukocytes” value in test [3] is on record as “inhibited”. In addition, in test [4], the “survival rate of thawed sperms” value is recorded as “did not show a clear effect”. Also, the “cell survival rate after thawing in comparison with other rare sugars” value in test [5] (0, 0.2, 0.4, 0.6, 0.8 and 1M, comparison under way, tendency) is given as “the highest”. For the same compound, the “survival rate of cells” value in test [5] (D-allose added to 10% DMSO and Cell Banker, compared with DMSO and Cell Banker) was “the higher the concentration of D-allose, the lower the survival rate of cells”. Further, the optimum preservation temperature in test [5] (D-allose-containing freeze-preservative agent) was −80 °C. In test [5] (freeze-preservation extended by one month), the “survival rate of cells with extended time of freeze-preservation” value is “not changed so much”. Besides, the “number of cells survived (trypan blue dying)” value in test [5] (sugar-containing medium in comparison with medium alone (FIG. 7)) is listed as “large”. The “survival rate by temperature of freeze-preservation” value in test [5] (−80° C. versus liquid nitrogen) is given as “much higher”. Besides, the “growth rate of cells after thawing” value is listed as “growth rate was high” in test [6]; “the same results were obtained” in test [7]; “higher in growth rate” in test [8] (freeze-preserved 24 hours at optimum concentration, versus other cases (FIG. 8)). The “functional impairment of frozen cells” value in test [8] (versus commercially available Cell Banker cell preservative solution) is on record as “less impaired functionally”.
